Structures can show the parent of a compound that is named as a salt.
Experiments:
[1] = target: Serotonin 5-HT2A receptor (Rattus norvegicus (Rat), UniProt P14842); assay: Serotonin 5-HT2A receptor binding assay ([3H]-Ketanserin, rat frontal cortex membrane); details: Ki from IC50 by Cheng-Prussoff formula
Description: 2) Serotonin 5-HT2A Receptor Binding Assay
The assay was performed according to the method by Leysen J E et al. (Leysen J E, Niemegeers C J E, Van Nueten J M and Laduron P M. [3H] Ketanserin (R 41 468), a selective 3H-ligand for serotonin 2 receptor binding sites. Mol. Pharmacol., 1982, 21: 301-314).
Wistar male rats were decapitated, the brain was retrieved immediately and frontal cortex was taken out. It was homogenized in 0.25 M sucrose of a volume 10 times of the weight of the tissue using a Teflon glass homogenizer, and centrifuged at 4° C., 1,000×g for 10 minutes. The obtained supernatant was transferred to another centrifuge tube and suspended in 0.25 M sucrose of a volume 5 times of the weight of the tissue and the precipitate was centrifuged in the above-described condition. The obtained supernatant was combined with the supernatant obtained above and adjusted to a volume 40 times of the weight of the tissue with 50 mM Tris-hydrochloric acid buffer (pH 7.4), and centrifuged at 4° C., 35,000×g for 10 minutes. The obtained precipitate was suspended again in the above-described buffer of a volume 40 times of the weight of the tissue and centrifuged in the above-described condition. The obtained precipitate was suspended in the above-described buffer of a volume 20 times of the weight of the tissue and preserved by freezing at −85° C. till it was used for binding assay as a membrane specimen.
The binding assay was performed using 40 μl of the membrane specimen, 20 μl of [^3H]-Ketanserin (final concentration 1 to 3 nM), 20 μl of a test drug and 50 mM Tris-hydrochloric acid buffer (pH 7.4) so that the total amount was 200 μl (final dimethylsulfoxide concentration 1%). The reaction was performed at 37° C. for 20 minutes and terminated by conducting suction filtration with a cell harvester on a glass fiber filter plate.
The filter plate made of glass fiber was washed with 50 mM Tris-hydrochloric acid buffer (pH 7.4), and after dried, a microplate liquid scintillation cocktail was added and the radioactivity was measured with a microplate scintillation counter. Radioactivity in the presence of 10 μM spiperone was assumed as nonspecific binding.
(§1) IC50 value was calculated from concentration-dependent reaction using a non-linear analysis program. Ki value was calculated from IC50 value using Cheng-Prussoff formula.

[2] = target: Dopamine D2 receptor (Rattus norvegicus (Rat), UniProt P61169); assay: Dopamine D2 receptor binding assay ([3H]-raclopride, rat corpus striatum membrane); details: Ki from IC50 by Cheng-Prussoff formula
Description: Pharmacological Test 1 1) Dopamine D2 Receptor Binding Assay
Wistar male rats were decapitated, the brain was retrieved immediately and corpus striatum was taken out. It was homogenized in 50 mM tris(hydroxymethyl)aminomethane (Tris)-hydrochloric acid buffer (pH 7.4) of a volume 50 times of the weight of the tissue using a homogenizer with a high-speed rotating blade, and centrifuged at 4° C., 48,000×g for 10 minutes. The obtained precipitate was suspended again in the above-described buffer of a volume 50 times of the weight of the tissue and after incubated at 37° C. for 10 minutes, centrifuged in the above-described condition. The obtained precipitate was suspended in 50 mM (Tris)-hydrochloric acid buffer (containing 120 mM NaCl, 5 mM KCl, 2 mM CaCl2, 1 mM MgCl2, pH 7.4) of a volume 25 times of the weight of the tissue and preserved by freezing at −85° C. till it was used for binding assay as a membrane specimen.
The binding assay was performed using 40 μl of the membrane specimen, 20 μl of [^3H]-raclopride (final concentration 1 to 2 nM), 20 μl of a test drug and 50 mM Tris-hydrochloric acid buffer (containing 120 mM NaCl, 5 mM KCl, 2 mM CaCl2, 1 mM MgCl2, pH 7.4) so that the total amount was 200 μl (final dimethylsulfoxide concentration 1%). The reaction was performed at room temperature for 1 hour and terminated by conducting suction filtration with a cell harvester on a glass fiber filter plate. The filter plate made of glass fiber was washed with 50 mM Tris-hydrochloric acid buffer (pH 7.4), and after dried, a microplate liquid scintillation cocktail was added and the radioactivity was measured with a microplate scintillation counter. Radioactivity in the presence of 10 μM (+)-butaclamol hydrochloride was assumed as nonspecific binding.
as §1

[3] = target: Serotonin (5-HT) uptake (Rattus norvegicus (Rat), UniProt P31652); assay: Serotonin (5-HT) uptake inhibitory activity by rat brain synaptosome; format: biochemical; details: test compound 300 nM, rat frontal cortex synaptosome; read-out: Serotonin uptake inhibitory ratio (%) (300 nM)
Description: Measurement of Serotonin (5-HT) Uptake Inhibitory Activity of a Test Compound by Rat Brain Synaptosome
Wistar male rats were decapitated, the brain was retrieved and frontal cortex was dissected out, and it was homogenized in 0.32 M sucrose solution of a weight 20 times of the weight of the tissue using a Potter type homogenizer. The homogenate was centrifuged at 4° C., 1,000×g for 10 minutes, the obtained supernatant was further centrifuged at 4° C., 20,000×g for 20 minutes, and the pellet was suspended in an incubation buffer (20 mM Hepes buffer (pH 7.4) containing 10 mM glucose, 145 mM sodium chloride, 4.5 mM potassium Chloride, 1.2 mM magnesium chloride, 1.5 mM calcium chloride), which was used as crude synaptosome fraction.
5-HT uptake reaction was performed in a volume of 200 μl using a 96-well round bottom plate and pargyline (final concentration 10 μM) and sodium ascorbate (final concentration 0.2 mg/ml) were contained in the incubation buffer upon reaction and used.
Incubation buffer (total counting), non-labeled 5-HT (final concentration 10 μM, non-specific counting) and the diluted test compound (final concentration 300 nM) were added to each well. One-tenth quantity of the final volume of the synaptosome fraction was added and after preincubated at 37° C. for 10 minutes, tritium labeled 5-HT solution (final concentration 8 nM) was added and uptake reaction was started at 37° C. The uptake time was 10 minutes and the reaction was terminated by vacuum filtration through a 96-well fiber glass filter paper plate, and after the filter paper was washed with cold normal saline, it was dried enough and Microscint0 (Perkin-Elmer) was added to the filter and remaining radioactivity on the filter was measured.

Chain of Serotonin 5-HT2A receptor (P14842 whole entry): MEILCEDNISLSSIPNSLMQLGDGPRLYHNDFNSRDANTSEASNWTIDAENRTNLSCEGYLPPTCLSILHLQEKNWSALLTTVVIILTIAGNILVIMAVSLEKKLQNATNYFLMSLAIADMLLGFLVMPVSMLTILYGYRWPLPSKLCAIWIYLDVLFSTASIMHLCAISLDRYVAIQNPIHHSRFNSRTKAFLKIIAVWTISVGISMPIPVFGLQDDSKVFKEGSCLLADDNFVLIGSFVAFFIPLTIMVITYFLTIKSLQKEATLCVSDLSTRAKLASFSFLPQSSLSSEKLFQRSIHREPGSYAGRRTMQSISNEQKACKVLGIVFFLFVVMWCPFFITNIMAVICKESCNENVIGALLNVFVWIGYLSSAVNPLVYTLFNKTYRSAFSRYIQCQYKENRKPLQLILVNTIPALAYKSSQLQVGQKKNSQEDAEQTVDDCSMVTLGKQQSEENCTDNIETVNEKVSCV
Chain of Serotonin (5-HT) uptake (P31652 whole entry): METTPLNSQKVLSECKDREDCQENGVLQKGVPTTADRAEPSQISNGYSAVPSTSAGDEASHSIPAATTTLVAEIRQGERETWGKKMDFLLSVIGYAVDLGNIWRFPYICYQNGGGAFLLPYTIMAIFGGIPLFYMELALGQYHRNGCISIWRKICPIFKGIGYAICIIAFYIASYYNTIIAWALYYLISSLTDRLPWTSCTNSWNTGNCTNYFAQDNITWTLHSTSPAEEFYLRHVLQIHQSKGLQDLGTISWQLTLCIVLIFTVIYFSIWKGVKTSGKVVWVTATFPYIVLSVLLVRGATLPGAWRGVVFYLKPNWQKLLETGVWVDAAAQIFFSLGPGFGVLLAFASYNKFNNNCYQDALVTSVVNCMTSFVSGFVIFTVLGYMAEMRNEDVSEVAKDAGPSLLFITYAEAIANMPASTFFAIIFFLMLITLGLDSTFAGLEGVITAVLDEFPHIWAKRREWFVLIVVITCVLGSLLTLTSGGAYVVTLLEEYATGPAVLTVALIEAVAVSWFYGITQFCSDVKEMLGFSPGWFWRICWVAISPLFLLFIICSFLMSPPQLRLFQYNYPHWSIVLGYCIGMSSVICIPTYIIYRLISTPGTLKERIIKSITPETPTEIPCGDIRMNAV
Chain of Dopamine D2 receptor (P61169 whole entry): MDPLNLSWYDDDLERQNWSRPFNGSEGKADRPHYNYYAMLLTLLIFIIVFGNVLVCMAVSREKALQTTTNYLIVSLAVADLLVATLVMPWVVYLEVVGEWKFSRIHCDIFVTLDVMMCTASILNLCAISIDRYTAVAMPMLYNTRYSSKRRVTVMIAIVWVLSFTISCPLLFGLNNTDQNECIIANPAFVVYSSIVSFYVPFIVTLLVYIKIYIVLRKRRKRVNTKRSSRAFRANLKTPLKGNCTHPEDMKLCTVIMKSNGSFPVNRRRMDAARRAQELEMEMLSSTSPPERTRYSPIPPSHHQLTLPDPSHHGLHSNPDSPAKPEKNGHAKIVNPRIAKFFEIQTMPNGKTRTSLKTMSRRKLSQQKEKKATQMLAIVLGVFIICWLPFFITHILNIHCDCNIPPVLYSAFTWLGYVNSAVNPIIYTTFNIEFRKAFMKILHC

| SMILES | Ki [1] [nM] | Ki [2] [nM] | inhibition at 0.3 µM [3] [%] | Ki ([1]; hydrochloride) [nM] |
| --- | --- | --- | --- | --- |
| COc1ccc2ccn(CCCCN3CCN(c4cccc5sccc45)CC3)c(=O)c2c1 [Example 38, 2-[4-(4-benzo[b]thiophen-4-yl-piperazin-1-yl)butyl]-7-methoxy-2H-isoquinolin-1-one hydrochloride] | 7.3 |  |  |  |
| O=C1CCc2cc(OCCCN3CCN(c4cccc5sccc45)CC3)cc(F)c2N1 [Example 116] | 4.2 | 4.5 |  |  |
| O=C1CCc2cc(OCCCCN3CCN(c4cccc5sccc45)CC3)ccc2N1 [Example 20, 6-[4-(4-benzo[b]thiophen-4-yl-piperazin-1-yl)butoxy]-3,4-dihydro-1H-quinolin-2-one] | 3.3 | 1.5 | 92.8 |  |
| O=c1c2cc(O)ccc2ccn1CCCCN1CCN(c2cccc3sccc23)CC1 [Example 39, 2-[4-(4-benzo[b]thiophen-4-yl-piperazin-1-yl)butyl]-7-hydroxy-2H-isoquinolin-1-one hydrobromide] |  | 1.2 |  |  |
| O=C1CCc2c(O)ccc(OCCCN3CCN(c4cccc5sccc45)CC3)c2N1 [Example 190] |  | 0.8 |  |  |
| O=c1[nH]ccc2ccc(OCCCN3CCN(c4cccc5sccc45)CC3)cc12 [Example 35, 7-[3-(4-benzo[b]thiophen-4-yl-piperazin-1-yl)propoxy]-2H-isoquinolin-1-one] |  | 1.6 |  |  |
| O=C1CCc2ccc(OCCCCN3CCN(c4cccc5sccc45)CC3)cc2N1 [Example 12, 7-[4-(4-benzo[b]thiophen-4-yl-piperazin-1-yl)butoxy]-3,4-dihydro-1H-quinolin-2-one hydrochloride] |  |  |  | 2.1 |
| CC(=O)Nc1ccc(OCCCN2CCN(c3cccc4sccc34)CC2)c2c1NC(=O)CC2 [Example 155] | 3 | 2.3 |  |  |
| O=C1NCCc2cc(OCCCN3CCN(c4cccc5sccc45)CC3)ccc21 [Example 25, 6-[3-(4-benzo[b]thiophen-4-yl-piperazin-1-yl)propoxy]-3,4-dihydro-2H-isoquinolin-1-one] | 4.6 |  | 91.9 |  |
| O=C1CCc2c(cccc2OCCCN2CCN(c3cccc4sccc34)CC2)N1 [Example 122] | 2.9 | 3.3 |  |  |
| CN1CCc2cc(OCCCN3CCN(c4cccc5sccc45)CC3)ccc2C1=O [Example 26, 6-[3-(4-benzo[b]thiophen-4-yl-piperazin-1-yl)propoxy]-2-methyl-3,4-dihydro-2H-isoquinolin-1-one] | 4.4 | 3.5 | 92 |  |
| CN1CCc2ccc(OCCCCN3CCN(c4cccc5sccc45)CC3)cc2C1=O [Example 32, 7-[4-(4-benzo[b]thiophen-4-yl-piperazin-1-yl)butoxy]-2-methyl-3,4-dihydro-2H-isoquinolin-1-one hydrochloride] |  | 1.5 |  |  |
| Cc1cc(=O)[nH]c2cc(OCCCCN3CCN(c4cccc5sccc45)CC3)ccc12 [Example 4, 7-[4-(4-benzo[b]thiophen-4-yl-piperazin-1-yl)butoxy]-4-methyl-1H-quinolin-2-one] | 4.9 | 0.5 | 91 |  |
| CCN1CCc2ccc(OCCCN3CCN(c4cccc5sccc45)CC3)cc2C1=O [Example 31, 7-[3-(4-benzo[b]thiophen-4-yl-piperazin-1-yl)propoxy]-2-ethyl-3,4-dihydro-2H-isoquinolin-1-one dihydrochloride] |  | 1.4 |  |  |
| O=C1CCc2ccc(OC/C=C\CN3CCN(c4cccc5sccc45)CC3)cc2N1 [Example 13, 7-[4-(4-benzo[b]thiophen-4-yl-piperazin-1-yl)-(Z)-2-butenyloxy]-3,4-dihydro-1H-quinolin-2-one] |  | 2.4 | 77 |  |
| O=C1CCc2cc(CO)c(OCCCN3CCN(c4cccc5sccc45)CC3)cc2N1 [Example 139] |  | 0.2 |  |  |
| O=C1CCc2ccc(OCCCCN3CCN(c4cccc5sccc45)CC3)cc2N1 [Example 11, 7-[4-(4-benzo[b]thiophen-4-yl-piperazin-1-yl)butoxy]-3,4-dihydro-1H-quinolin-2-one] | 5.7 |  |  |  |
| Cc1cccc2cc(OCCCN3CCN(c4cccc5sccc45)CC3)c(=O)[nH]c12 [Example 117] |  | 4.7 |  |  |
| Cn1ccc2ccc(OCCCN3CCN(c4cccc5sccc45)CC3)cc2c1=O [Example 36, 7-[3-(4-benzo[b]thiophen-4-yl-piperazin-1-yl)propoxy]-2-methyl-2H-isoquinolin-1-one hydrochloride] | 2.1 |  |  |  |
| O=c1[nH]c2ccccc2cc1OCCN1CCN(c2cccc3sccc23)CC1 [Example 2, 3-[2-(4-benzo[b]thiophen-4-yl-piperazin-1-yl)ethoxy]-1H-quinolin-2-one] | 1.5 |  | 78.8 |  |
| Cc1cc2ccc(OCCCCN3CCN(c4cccc5sccc45)CC3)cc2[nH]c1=O [Example 6, 7-[4-(4-benzo[b]thiophen-4-yl-piperazin-1-yl)butoxy]-3-methyl-1H-quinolin-2-one] |  | 0.8 | 91.3 |  |
| O=c1ccc2cc(OCCCN3CCN(c4cccc5sccc45)CC3)cc(F)c2[nH]1 [Example 118] | 3.4 | 3.5 |  |  |
| O=C1NCCc2ccc(OCCCN3CCN(c4cccc5sccc45)CC3)cc21 [Example 28, 7-[3-(4-benzo[b]thiophen-4-yl-piperazin-1-yl)propoxy]-3,4-dihydro-2H-isoquinolin-1-one] |  | 1.2 |  |  |
| Cc1cc(=O)[nH]c2ccc(OCCCCN3CCN(c4cccc5sccc45)CC3)cc12 [Example 185] | 5 | 2.7 |  |  |
| O=c1ccc2cc(OCCCCN3CCN(c4cccc5sccc45)CC3)cc(F)c2[nH]1 [Example 184] | 4.3 | 2.6 |  |  |
| O=c1ccc2cccc(OCCCCN3CCN(c4cccc5sccc45)CC3)c2[nH]1 [Example 188] | 6.3 | 1.6 |  |  |
| O=C1CCc2cccc(OCCCCN3CCN(c4cccc5sccc45)CC3)c2N1 [Example 186] | 8.8 | 2.3 |  |  |
| O=C1CCc2ccccc2N1CCCCCN1CCN(c2cccc3sccc23)CC1 [Example 22, 1-[5-(4-benzo[b]thiophen-4-yl-piperazin-1-yl)pentyl]-3,4-dihydro-1H-quinolin-2-one hydrochloride] |  | 4 |  |  |

Reference: US9206167B2, “Piperazine-substituted benzothiophenes for treatment of mental disorders” (Otsuka Pharmaceutical Co., Ltd., priority 2005, dated 2015)
